Results taken from patent publication EP0938471B1, “THE PREPARATION AND USE OF ORTHO-SULFONAMIDO ARYL HYDROXAMIC ACIDS AS MATRIX METALLOPROTEINASE AND TACE INHIBITORS” (priority 1996, dated 1998).
Where two headings read alike, the source gives them in different places.

What was measured:
Format in all cases: biochemical
[1] = target: TACE (Homo sapiens, UniProt P78536); assay: TACE inhibition (fluorescent peptidyl substrate); details: for inhibition at 1 µM: at 1µM concentration
[2] = target: MMP-13 (Homo sapiens, UniProt P45452); assay: MMP-13 inhibition (thiopeptide or fluorescent peptide substrate assay)
[3] = target: MMP-9 (Homo sapiens, UniProt P14780); assay: MMP-9 inhibition (thiopeptide or fluorescent peptide substrate assay)
MMP-9, sequence (P14780 94-707): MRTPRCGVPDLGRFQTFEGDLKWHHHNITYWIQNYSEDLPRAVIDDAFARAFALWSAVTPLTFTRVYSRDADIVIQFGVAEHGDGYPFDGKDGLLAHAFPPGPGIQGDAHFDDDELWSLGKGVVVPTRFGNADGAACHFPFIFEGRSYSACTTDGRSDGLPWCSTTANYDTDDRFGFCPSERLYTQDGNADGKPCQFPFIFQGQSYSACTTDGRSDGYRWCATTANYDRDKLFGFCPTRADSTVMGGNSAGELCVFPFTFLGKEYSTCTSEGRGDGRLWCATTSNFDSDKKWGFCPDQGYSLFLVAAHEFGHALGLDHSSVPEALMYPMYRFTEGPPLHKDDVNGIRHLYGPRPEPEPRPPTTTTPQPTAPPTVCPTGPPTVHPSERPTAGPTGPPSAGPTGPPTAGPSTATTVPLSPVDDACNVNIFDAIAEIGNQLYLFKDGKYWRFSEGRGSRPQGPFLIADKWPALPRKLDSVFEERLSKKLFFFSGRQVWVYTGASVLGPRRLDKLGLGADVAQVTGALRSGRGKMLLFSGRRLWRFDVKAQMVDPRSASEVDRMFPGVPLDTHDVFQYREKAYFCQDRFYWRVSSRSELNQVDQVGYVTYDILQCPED

[4] = target: T1, MMP-1 (Homo sapiens, UniProt P03956); assay: MMP-1 inhibition (thiopeptide or fluorescent peptide substrate assay)
T1 sequence (P03956 100-469): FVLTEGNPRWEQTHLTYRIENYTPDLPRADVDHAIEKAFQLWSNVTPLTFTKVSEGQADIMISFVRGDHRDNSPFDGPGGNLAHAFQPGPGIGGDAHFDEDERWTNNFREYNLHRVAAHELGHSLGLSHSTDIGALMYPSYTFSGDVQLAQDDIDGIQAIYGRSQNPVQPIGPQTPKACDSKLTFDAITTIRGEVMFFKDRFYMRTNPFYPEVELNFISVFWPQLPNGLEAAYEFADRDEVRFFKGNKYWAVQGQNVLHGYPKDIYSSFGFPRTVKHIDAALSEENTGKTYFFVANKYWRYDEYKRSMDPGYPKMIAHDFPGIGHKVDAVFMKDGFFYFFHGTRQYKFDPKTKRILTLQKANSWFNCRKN

TACE, sequence (P78536 215-824): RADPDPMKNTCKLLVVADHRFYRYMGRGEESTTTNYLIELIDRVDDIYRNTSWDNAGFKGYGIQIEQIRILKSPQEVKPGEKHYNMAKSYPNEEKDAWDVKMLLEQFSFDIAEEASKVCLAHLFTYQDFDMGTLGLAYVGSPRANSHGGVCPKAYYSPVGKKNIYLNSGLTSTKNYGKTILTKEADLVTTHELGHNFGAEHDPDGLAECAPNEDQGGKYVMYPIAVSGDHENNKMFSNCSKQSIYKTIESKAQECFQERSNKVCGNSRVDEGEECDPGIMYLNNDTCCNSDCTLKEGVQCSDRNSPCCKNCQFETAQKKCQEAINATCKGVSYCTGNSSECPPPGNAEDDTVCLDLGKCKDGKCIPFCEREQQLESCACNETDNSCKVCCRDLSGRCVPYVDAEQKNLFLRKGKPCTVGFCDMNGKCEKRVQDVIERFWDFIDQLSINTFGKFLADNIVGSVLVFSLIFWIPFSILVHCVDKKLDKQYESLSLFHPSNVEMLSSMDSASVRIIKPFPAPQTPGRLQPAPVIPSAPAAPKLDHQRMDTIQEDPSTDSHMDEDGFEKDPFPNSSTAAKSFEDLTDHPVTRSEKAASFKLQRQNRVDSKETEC

Row | Structure (SMILES) | inhibition at 1 µM [1] [%] | IC50 ([2]; read-out: MMP-13 IC50) [µM] | IC50 ([3]; read-out: MMP-9 IC50) [µM] | IC50 ([4]; read-out: MMP-1 IC50) [µM] | IC50 ([1]; read-out: TACE IC50) [µM] | IC50 [1] [µM] | IC50 [2] [µM] | IC50 [3] [µM] | IC50 [4] [µM]
1 | COc1ccc(S(=O)(=O)N(Cc2ccccc2)c2c(OC(C)(C)C(=O)NO)cccc2C(=O)NO)cc1 [Example 197] | 32 | 0.006 | 0.005 | 0.711 | – | – | – | – | –
2 | COc1ccc(S(=O)(=O)N(Cc2ccccc2)c2c(Br)cccc2C(=O)NO)cc1 [Example 201, 3-Bromo-2-[benzyl-(4-methoxybenzenesulfonyl)amino]-N-hydroxy-benzamide] | – | 0.027 | 0.011 | 0.104 | 1 | – | – | – | –
3 | CCCCCCCCN(C)C(=O)C=Cc1cc(C)c(N(C)S(=O)(=O)c2ccc(OC)cc2)c(C(=O)NO)c1 [Example 207, N-Hydroxy-2-[(4-methoxy-benzenesulfonyl)-methyl-amino]-3-methyl-5-[2-(methyl-octyl-carbamoyl)-vinyl]-benzamide] | – | 0.0025 | 0.002 | 1.12 | 0.375 | – | – | – | –
4 | CCCCCCCCN(C)C(=O)CCc1cc(C)c(N(C)S(=O)(=O)c2ccc(OC)cc2)c(C(=O)NO)c1 [Example 212, N-Hydroxy-2-[(4-methoxy-benzenesulfonyl)-methyl-amino]-3-methyl-5-[2-(methyl-octyl-carbamoyl)-ethyl]-benzamide] | – | 0.011 | 0.0052 | 0.415 | 0.314 | – | – | – | –
5 | COc1ccc(S(=O)(=O)N(C)c2c(C)cc(C=CC(=O)N(C)C)cc2C(=O)O)cc1 [Example 214, 5-(2-Dimethylcarbamoyl-vinyl)-2-[(4-methoxy-benzenesulfonyl)-methyl-amino]-3-methyl-benzoic acid] | – | – | – | – | – | 0.232 | 0.019 | 0.0064 | 0.423
6 | CCN(Cc1ccncc1)C(=O)C=Cc1cc(C)c(N(C)S(=O)(=O)c2ccc(OC)cc2)c(C(=O)NO)c1 [Example 219, 5-[2-(Ethyl-pyridin-4-ylmethyl-carbamoyl)-vinyl]-N-hydroxy-2-[(4-methoxy-benzenesulfonyl)-methyl-amino]-3-methyl-benzamide] | – | 0.0058 | 0.0067 | 0.29 | 0.548 | – | – | – | –
7 | CCCCCCCCN(C)C(=O)C=Cc1cc(C)c(N(Cc2cccnc2)S(=O)(=O)c2ccc(OC)cc2)c(C(=O)NO)c1 [Example 224, N-Hydroxy-2-[(4-methoxy-benzenesulfonyl)-pyridin-3-ylmethyl-amino]-3-methyl-5-[2-(methyl-octyl-carbamoyl)-vinyl]-benzamide] | – | 0.014 | 0.011 | 0.957 | 0.715 | – | – | – | –
8 | COc1ccc(S(=O)(=O)N(Cc2cccnc2)c2c(C)cc(C=CC(=O)N(C)C)cc2C(=O)NO)cc1 [Example 227, 5-(2-Dimethylcarbamoyl-vinyl)-N-hydroxy-2-[(4-methoxy-benzenesulfonyl)-pyridin-3-ylmethyl-amino]-3-methyl-benzamide] | – | 0.0041 | 0.0031 | 0.193 | 0.446 | – | – | – | –
9 | C=CCN(CC=C)C(=O)C=Cc1cc(C)c(N(Cc2cccnc2)S(=O)(=O)c2ccc(OC)cc2)c(C(=O)NO)c1 [Example 233, 5-(2-Diallylcarbamoyl-vinyl)-N-hydroxy-2-[(4-methoxy-benzenesulfonyl)-pyridin-3-ylmethyl-amino]-3-methyl-benzamide] | – | 0.0018 | 0.0023 | 0.032 | 0.45 | – | – | – | –
10 | COc1ccc(S(=O)(=O)N(Cc2cccnc2)c2c(C)cc(C=CC(=O)N3CCOCC3)cc2C(=O)NO)cc1 [Example 240] | – | 0.0016 | 0.0035 | 0.086 | 0.548 | – | – | – | –
11 | C=Cc1cc(C)c(N(Cc2ccccc2)S(=O)(=O)c2ccc(OC)cc2)c(C(=O)NO)c1 [Example 267, 2-[Benzyl-(4-methoxy-benzenesulfonyl)-amino]-N-hydroxy-3-methyl-5-vinyl-benzamide] | – | 0.013 | 0.003 | 0.059 | 0.136 | – | – | – | –
12 | COc1ccc(S(=O)(=O)N(Cc2ccccc2)c2c(C)ccc(C)c2C(=O)NO)cc1 [Example 292, 2-[Benzyl-(4-methoxy-benzenesulfonyl)-amino]-N-hydroxy-3,6-dimethyl-benzamide] | 7 | 0.029 | 0.008 | 0.184 | – | – | – | – | –

Now from value to molecule, other results behind:

Row | inhibition at 1 µM [1] [%] | IC50 ([2]; read-out: MMP-13 IC50) [µM] | IC50 ([3]; read-out: MMP-9 IC50) [µM] | IC50 ([4]; read-out: MMP-1 IC50) [µM] | IC50 ([1]; read-out: TACE IC50) [µM] | Structure (SMILES) | IC50 [1] [µM] | IC50 [2] [µM] | IC50 [3] [µM] | IC50 [4] [µM]
13 | 47 | 0.0019 | 0.0024 | 0.02 | – | CCN(C(=O)C=Cc1cc(C)c(N(Cc2cccnc2)S(=O)(=O)c2ccc(OC)cc2)c(C(=O)NO)c1)c1ccccc1 [Example 230, 5-[2-(Ethyl-phenyl-carbamoyl)-vinyl]-N-hydroxy-2-[(4-methoxy-benzenesulfonyl)-pyridin-3-ylmethyl-amino]-3-methyl-benzamide] | – | – | – | –
14 | – | 0.0031 | 0.0066 | 0.528 | 0.066 | COc1ccc(S(=O)(=O)N(Cc2cccnc2)c2c(C)cc(-c3ccccc3C=NO)cc2C(=O)NO)cc1 [Example 243, 2'-(Hydroxyimino-methyl)-4-[(4-methoxy-benzenesulfonyl)-pyridin-3-ylmethyl-amino]-5-methyl-biphenyl-3-carboxylic acid hydroxyamide] | – | – | – | –
15 | – | 0.0036 | 0.006 | 0.106 | 0.056 | COc1ccc(S(=O)(=O)N(Cc2cccnc2)c2c(C)cc(-c3cccc(C=NO)c3)cc2C(=O)NO)cc1 [Example 246, 3'-(Hydroxyimino-methyl)-4-[(4-methoxy-benzenesulfonyl)-pyridin-3-ylmethyl-amino]-5-methyl-biphenyl-3-carboxylic acid hydroxyamide] | – | – | – | –
16 | – | 0.006 | 0.0028 | 0.231 | 0.1 | COc1ccc(S(=O)(=O)N(Cc2cccnc2)c2c(C)cc(-c3ccc(C=NO)cc3)cc2C(=O)NO)cc1 [Example 249, 4'-(Hydroxyimino-methyl)-4-[(4-methoxy-benzenesulfonyl)-pyridin-3-ylmethyl-amino]-5-methyl-biphenyl-3-carboxylic acid hydroxyamide] | – | – | – | –
17 | – | 0.01 | 0.015 | 0.652 | 0.346 | COc1ccc(S(=O)(=O)N(Cc2cccnc2)c2c(C)cc(-c3ccccc3C(F)(F)F)cc2C(=O)NO)cc1 [Example 252, 4-[(4-Methoxy-benzenesulfonyl)-pyridin-3-ylmethyl-amino]-5-methyl-2'-trifluoromethyl-biphenyl-3-carboxylic acid hydroxyamide] | – | – | – | –
18 | – | 0.0032 | 0.0071 | 0.048 | 0.065 | COc1ccc(S(=O)(=O)N(Cc2cccnc2)c2c(C)cc(-c3ccco3)cc2C(=O)NO)cc1 [Example 255, 5-Furan-2-yl-N-hydroxy-2-[(4-methoxy-benzenesulfonyl)-pyridin-3-ylmethyl-amino]-3-methyl-benzamide] | – | – | – | –
19 | – | 0.007 | 0.008 | 0.169 | 0.11 | COc1ccc(S(=O)(=O)N(Cc2cccnc2)c2c(C)cc(-c3sccc3C=NO)cc2C(=O)NO)cc1 [Example 258, N-Hydroxy-5-[3-(hydroxyimino-methyl)-thiophen-2-yl]-2-[(4-methoxy-benzenesulfonyl)-pyridin-3-ylmethyl-amino]-3-methyl-benzamide] | – | – | – | –
20 | – | 0.0028 | 0.0013 | 0.247 | 0.054 | COc1ccc(S(=O)(=O)N(Cc2cccnc2)c2c(C)cc(-c3ccc(Cl)s3)cc2C(=O)NO)cc1 [Example 261, 5-(5-Chloro-thiophen-2-yl)-N-hydroxy-2-[(4-methoxy-benzenesulfonyl)-pyridin-3-ylmethyl-amino]-3-methyl-benzamide] | – | – | – | –
21 | – | 0.0064 | 0.0037 | 0.159 | 0.077 | COc1ccc(S(=O)(=O)N(Cc2cccnc2)c2c(C)cc(-c3ccc(C(C)=O)s3)cc2C(=O)NO)cc1 [Example 264, 5-(5-Acetyl-thiophen-2-yl)-N-hydroxy-2-[(4-methoxy-benzenesulfonyl)-pyridin-3-ylmethyl-amino]-3-methyl-benzamide] | – | – | – | –
22 | – | 0.004 | 0.004 | 0.056 | 0.034 | CCc1cc(C)c(N(Cc2cccnc2)S(=O)(=O)c2ccc(OC)cc2)c(C(=O)NO)c1 [Example 277, 5-Ethyl-N-hydroxy-2-[(4-methoxy-benzenesulfonyl)-pyridin-3-ylmethyl-amino]-3-methyl-benzamide] | – | – | – | –
23 | – | 0.0098 | 0.006 | 0.312 | 0.061 | COc1ccc(S(=O)(=O)N(Cc2cccnc2)c2c(C)cc(-c3cccnc3)cc2C(=O)NO)cc1 [Example 285, N-Hydroxy-2-[(4-methoxy-benzenesulfonyl)-pyridin-3-ylmethyl-amino]-3-methyl-5-pyridin-3-yl-benzamide] | – | – | – | –
24 | 58 | 0.014 | 0.009 | 0.297 | – | COc1ccc(S(=O)(=O)N(Cc2cccnc2)c2c(C)ccc(C)c2C(=O)NO)cc1 [Example 297, N-Hydroxy-2-[(4-methoxy-benzenesulfonyl)-pyridin-3-ylmethyl-amino]-3,6-dimethyl-benzamide] | – | – | – | –
25 | – | 0.0087 | 0.0069 | 0.211 | 1.48 | COc1ccc(S(=O)(=O)N(Cc2cccnc2)c2c(C)cc(-c3cc(-c4ccc(C)o4)no3)cc2C(=O)NO)cc1 [Example 301, N-Hydroxy-2-[(4-methoxy-benzenesulfonyl)-pyridin-3-ylmethyl-amino]-3-methyl-5-[3-(5-methyl-furan-2-yl)-isoxazol-5-yl]-benzamide] | – | – | – | –
